Data reported in US20240415793A1, “Neuroprotective composition comprising pyruvate and citrate” (N.V. Nutricia, priority 2022, published 2024).

Key:
[1] = tested on: primary rat neuronal-glial cell cultures; assay: Seahorse assay (OCR/ECAR), acute 1 h nutrient pre-incubation, resting or seizure-like conditions; assay type: cell-based; conditions: 1 mM citrate
Experimental: A Seahorse assay was performed on primary rat neuronal-glial cell cultures to determine the impact of pyruvate and citric acid on glycolytic rates and lactate delivery, mitochondrial respiration and total (glycolytic and mitochondrial) ATP production.
Rat cortical cells were isolated from embryonic day 18 embryos using a combination of enzymatic and mechanical dissociation of brain cortical rat tissue. Immediately after dissociation, the cells were seeded at a density of 500′000 cells per mL in 96-well plates and grown at 37° C. for two weeks from day in vitro (DIV) 0 until DIV14 in Neurobasal medium supplemented with 2% (v/v) B27, 0.8 mM Magnesium (Mg2+), 25 mM glucose and 1% (v/v) Penicillin/Streptomycin. During this time neuronal axons grew out and formed synaptic contacts. In addition, glial cells, foremost astrocytes, grew and formed contacts with neurons. The incubation in 25 mM glucose accelerated the differentiation and network growth of neurons.
From DIV14 until DIV17, the cells were incubated in Neurobasal medium supplemented with 2% (v/v) B27, 0.8 mM Mg2+, 5 mM glucose and 1% (v/v) Penicillin/Streptomycin. The switch from high to low glucose was done to approach the low intracerebral glucose concentration of the human brain and create a more physiological metabolic environment.
The switch from 5 mM to 1 mM glucose matched the glucose concentrations in the human brain. Meanwhile the switch from high (0.8 mM) to low (0.1 mM) Mg^2+ increases the electrical firing frequency of neurons because Mg2+ is an inhibitor of excitatory NMDA-type ionotropic glutamate receptors, which account for most of the neuronal firing in this cell culture model. The increase in neuronal firing caused by incubation in 0.1 mM Mg^2+ increases the energy production of neurons and glial cells as reflected in the increase in basal respiration (FIG. 1B and E). After 1 hour of pre-incubation in the Seahorse medium containing the nutrients, the oxygen consumption rate [OCRs] and extracellular acidification rate [ECARs] of the neuroglial culture were measured in the Seahorse assay.
The oxygen consumption rates (OCRs) and extracellular acidification rates (ECARs) of cells seeded in 96-well plates were monitored in real time at 37° C. in unbuffered Hanks Balanced Salt Solution (HBSS). The OCRs represent foremost mitochondrial respiration, and to a minor extent non-mitochondrial respiration. The ECARs relate foremost to the acidification of the medium with lactate produced through glycolysis and secreted by the cells into the medium (Table 1).
During the Seahorse run, both the OCRs and ECARs were measured simultaneously at baseline and following the injection of compounds by the Seahorse instrument (Table 1). HBSS was supplemented with glucose from the start and no glucose was injected through the Seahorse instruments. Measurements were repeated three times at baseline and three times after each compound injection.
After the initial baseline measurement, oligomycin (OM) was injected. OM blocks mitochondrial ATP synthase (complex V) and therefore decreases mitochondrial respiration. The OCRs after OM injection are due to the mitochondrial proton leak. They enable to determine whether the test nutrients impact the proton leak. The difference in OCRs at baseline and after OM injection is the amount of oxygen used for mitochondrial ATP synthesis at baseline. From this difference in OCR, the mitochondrial ATP production rates are calculated.
After OM, uncoupling agent carbonyl cyanide-p- trifluoromethoxyphenyl-hydrazon [FCCP] was injected which collapses the proton gradient across the inner mitochondrial membrane established during respiration and required for ATP synthesis. The cells attempt to restore the proton gradient following FCCP injection by maximizing respiration. […]

[2] = tested on: primary rat neuronal-glial cell cultures; assay: as above; assay type: cell-based; conditions: for increase in OM-induced glycolytic rates (tended): FIG. 3D

SMILES: O=C(O)CC(O)(CC(=O)O)C(=O)O [citrate]
- increase in total (mitochondrial and glycolytic) ATP production ([1]; 0.1 mM Mg2+ control medium, FIG. 3A): ~60%
- increase in basal mitochondrial respiration ([1]; 0.1 mM Mg2+ control medium, FIG. 3B): ~40%
- increase in basal glycolytic rates ([1]; 0.1 mM Mg2+ medium, FIG. 3C): ~20%
- increase in OM-induced glycolytic rates (tended) ([2]; 1 mM citrate, 0.1 mM Mg2+ medium): ~15%
- increase in total (mitochondrial and glycolytic) ATP production ([2]; 1 mM citrate, 0.8 mM Mg2+ control medium, FIG. 3A): ~75%
- increase in basal mitochondrial respiration ([2]; 1 mM citrate, 0.8 mM Mg2+ control medium, FIG. 3B): ~100%
- increase in FCCP-driven maximal glycolytic capacity (tended) ([2]; 1 mM citrate, 0.8 mM Mg2+ control medium, FIG. 3E): ~35%
- increase in basal glycolytic rates ([2]; 1 mM citrate, 0.8 mM Mg2+ medium, FIG. 3C): ~70%
- increase in OM-induced glycolytic rates (tended) ([2]; 1 mM citrate, 0.8 mM Mg2+ medium): ~60%
- increase in mitochondrial oxygen consumption rates (OCR) at baseline ([2]; resting, high Mg2+ medium (DMEM, 5 mM glucose), dose-dependent, vs control medium without citrate, FIG. 1E): ≤ 25%
- increase in OM-induced proton leak ([2]; resting, high Mg2+ medium (DMEM, 5 mM glucose), vs control medium without citrate, FIG. 1F): ≤ 10%
- effect on FCCP-driven maximal respiratory capacity ([2]; resting, high Mg2+ medium (DMEM, 5 mM glucose), vs control medium without citrate, FIG. 1G): not significantly impacting
- increase in OM- and FCCP-induced maximal glycolytic capacity ([2]; resting, high Mg2+ medium, 0.25 mM citrate, FIG. 2E, F): 10-15%
- increase in basal glycolytic rates and lactate secretion ([2]; resting, high Mg2+ medium, acute, dose-dependent, FIG. 2D): ~25%
